Data reported in patent US20230296491A1, “DEVICE AND METHOD FOR DETERMINING A MECHANICAL PROPERTY OF A PARTICLE” (priority 2020, published 2023).

How the values were obtained:
NIH 3T3 fibroblast cells [1] = experiment: Hydrodynamic stretching deformability of chemically treated NIH 3T3 fibroblasts in the microfluidic system; assay type: cell-based; conditions: flow rate 10 μl/min, 2 wt % PEO; for mean deformability in the first frame: first frame of the recording cycle (before stretching); for deformability (mean, aspect ratio a/b of the deformed cell): last (15th) frame, CB 150 μM for two hours, fixation 4% formaldehyde for 8 mins
Protocol: On the other hand, an electrical sensing zone is introduced for on-demand single cell imaging. Three electrodes of 20 μm in width, 20 μm intervals are placed before the flow splitting junction, an input voltage of 0.5 V at 5 MHz is applied to the middle electrode and the differential current (Idifferential) is calculated from the two-sided electrodes. The differential configuration can cancel out electrical drifting caused by environmental fluctuation (i.e. flow, temperature, conductivity and pH) and achieve a higher signal-to-noise ratio. As the cell passes through the sensing region, it replaces the conductive medium and causes a change in the electrical current. By that, a pair of opposite peaks is transmitted into an impedance spectroscope. When the peak reaches the trigger level, a trigger signal is generated and fed to the camera. […] Next, for example at a flow rate of 10 μl/min, the camera starts to record 15 frames at a rate of 2,000 frames per second, with an exposure time of 50 μs. The first frame in a recording cycle is used to extract the cell diameter. At this point, the cell remains spherical because it starts to decelerate and is subject to minor stress. In one record cycle, the cell approaches the splitting junction, reaches the channel wall and migrates along the wall for a time span, ensuring the maximum strain is captured at the 15th frame (FIG. 5a). Its aspect ratio evaluates the cell deformability as
where a and b are the length of the long axis and the short axis of the deformed cell, respectively.
(§1) Cytochalasin B (Sigma-Aldrich) treated NIH 3T3 were prepared by incubating cells in 150 μM Cytochalasin B at 37° C. for two hours. After treatment with chemical reagents, cells were washed, centrifuged and resuspended in 2 wt % PEO solution. The viscoelastic solution was prepared by dissolving PEO (Mw=600 kDa, Sigma-Aldrich) powder into DPBS (Thermo Fisher Scientific) with a concentration of 2 wt %.
Samples were continuously introduced into the microfluidic devices using a syringe pump (KD Scientific, Holliston, MA) at a range of flow rates. Simultaneously, the electrical current was received by an impedance spectroscope (HF2IS, Zurich Instruments) and analyzed by a real-time program to send out a trigger signal whenever there was a cell passing through the electrical sensing region. The triggering signal was received by a camera (Photron Inc., San Diego, CA, USA), which started to record 15 frames at a 2,000 frame rate with an exposure time of 50 μs (at a flow rate of 10 μl/min). After the event triggered imaging process was completed, the video was processed offline using a custom-built Python program. […]

NIH 3T3 fibroblast cells [2] = experiment: Fluorescence imaging of actin in live NIH 3T3 cell before and after CB treatment; assay type: cell-based; conditions: NIH 3T3, fluorescence images (actin)
Protocol: (a) Representative fluorescence images (actin, red) of a live cell before (top) and after CB treatment (bottom).
as §1
To test the sensitivity of our system for cellular mechanical phenotyping, we compared the deformability of normal and Cytochalasin B (CB) treated two hours NIH 3T3 fibroblasts. […] In addition, we measured the deformability at a wide flow rate range of 1-30 μl/min. […] This flow rate was then applied to analyze the deformability difference. Furthermore, fixed cells were measured as control of undeformed cells.

Structure (SMILES)	mean deformability in the first frame (NIH 3T3 fibroblast cells [1])	deformability (mean, aspect ratio a/b of the deformed cell) (NIH 3T3 fibroblast cells [1])	effect on intracellular F-actin (FIG. 8a) (NIH 3T3 fibroblast cells [2])
C=C1[C@@H](C)[C@H]2[C@H](Cc3ccccc3)NC(=O)[C@]23OC(=O)/C=C/[C@H](O)CCC[C@@H](C)C/C=C/[C@H]3[C@@H]1O [CB, Cytochalasin B]	1.16±0.12	1.87±0.23	intracellular F-actin depolymerization
C=O [formaldehyde]	1.12±0.06	1.29±0.11	–
